Results published in ChEMBL document CHEMBL3826874, “Exploring new scaffolds for angiotensin II receptor antagonism” (Bioorg Med Chem, 2016).

Legend:
[1] = target: T1, Type-1 angiotensin II receptor (Homo sapiens) (UniProt P30556); test: (§1) Displacement of [125I-Sar1-Ile8]Ang2 from human AT1 receptor expressed in HEK293 cell membrane incubated for 1 hr by gamma counting method; assay type: cell membranes
T1 sequence (whole entry): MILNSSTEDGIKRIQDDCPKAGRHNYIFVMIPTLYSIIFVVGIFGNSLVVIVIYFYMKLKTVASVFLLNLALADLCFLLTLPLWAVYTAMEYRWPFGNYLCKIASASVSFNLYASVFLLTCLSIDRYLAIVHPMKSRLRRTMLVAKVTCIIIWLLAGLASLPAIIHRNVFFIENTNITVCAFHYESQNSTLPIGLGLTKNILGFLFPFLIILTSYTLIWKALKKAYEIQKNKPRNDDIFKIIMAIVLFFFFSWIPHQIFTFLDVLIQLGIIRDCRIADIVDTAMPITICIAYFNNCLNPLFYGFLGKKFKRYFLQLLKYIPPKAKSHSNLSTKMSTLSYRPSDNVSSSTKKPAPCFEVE

[2] = target: T2, Type-1 angiotensin II receptor (Homo sapiens, UniProt P30556); test: as §1; assay type: cell membranes
T2 sequence (P30556 whole entry): T1 sequence (whole entry)

Row | inhibition [1] | IC50 ([2]; read-out: pIC50 (converted)) [µM] | IC50 ([2]; read-out: IC50) [µM] | Compound
1 | Dose-dependent effect | 2.09 |  | Cc1ccc(CN(c2ccc(C(=O)NCc3ccccn3)cc2)S(C)(=O)=O)cc1
2 | Dose-dependent effect | 2.57 |  | CN(Cc1cn(-c2ccccc2)nc1-c1ccc(F)cc1)C(=O)CCC(=O)O
3 | Dose-dependent effect | 2.19 |  | Cc1ccc(C)c(NC(=O)CN(C)C(=O)c2ccc(S(=O)(=O)N3CCCCCC3)cc2)c1
4 | Dose-dependent effect |  | 0.199 | CN(Cc1cn(-c2ccccc2)nc1-c1ccc(Cl)cc1)C(=O)CCC(=O)O
